Laboratory results published in US8242142B2, “Cyclohexylamines, phenylamines and uses thereof” (The Regents of the University of California, priority 2008, dated 2012).
Where two headings read alike, the source gives them in different places.

What was measured:
[1] = tested on: Gli:GFP expression (Hh signaling); test: Gli:GFP transgenic zebrafish embryo assay; format: in vivo; conditions: for concentration at which inhibition of Hh signaling starts to show: zebrafish embryo assays; for concentration that blocks/abolishes Gli:GFP expression: zebrafish embryos
Text: Generation of Gli:GFP transgenic zebrafish. […] The PCR product digested with Nhe1 and Mlu1 was ligated to GFP and used to generate transgenic zebrafish by microinjection.
Image acquisition and analysis.

mouse Smo = test: FRET analysis of Smo conformation in NIH-3T3 cells; format: cell-based; conditions: for basal FRET of mSmo-CFPN/mSmoYFPN (N-termini): SANT74 or SANT75 50 nM, SAG 100 nM, with or without Shh; for Shh-induced decrease in FRET from mSmo-CFPL2YFPC (FRETL2C) / Shh-induced increase in FRET between mSmo-CFPC and mSmo-YFPC (FRETC): 50 nM, with Shh
Protocol: FRET analysis using confocal microscopy. Effect of SAG, compound 21a (SANT74), and compound 21b (SANT75) on mSmo conformational change was tested by FRET in NIH-3T3 cells that were co-transfected with mouse Smo CFP and Smo YFP reporter constructs. The construction of mSmo-CFP^C/YFP^C, mSmo-CFP^N/YFP^N, and mSmo-CFP^L2YFP^C was performed as described in Zhao Y. Tong C, Jiang J., “Hedgehog regulates smoothened activity by inducing a conformational switch” Nature, 2007; 450:252-8; incorporated herein by reference. NIH-3T3 cells were cultured in DMEM containing 10% bovine calf serum and antibiotics PS at 5% CO2 in a humidified incubator. Transfection was carried out using FuGENE6 (Roche). For FRET analysis of cultured cells, CFP- and YFP-tagged constructs were transfected into NIH-3T3 cells. Transfected cells were treated in the presence of compounds with or without Shh-conditioned medium. Cells were washed with PBS, fixed with 4% formaldehyde for 20 min, and mounted on slides in 80% glycerol. Fluorescence signals were acquired with the 100× objective of a Zeiss LSM510 confocal microscope. CFP was excited by 458 nm light and the emission was collected through BP 480-520 nm filter. YFP was excited by 514 nm light and the emission was collected through BP 535-590 nm filter. CFP signal was obtained once before and once after photobleaching YFP using the full power of the 514 nm laser line for 1-2 min at the top half of each cell, leaving the bottom half unbleached that serves as an internal control. The intensity of CFP was analyzed using the Metamorph software (Universal Imaging Corn). Energy transfer efficiency was calculated using the formula: FRET %=(CFPAP−CFPBP/CFPAP)×100. Each data set was based on 10-15 individual cells. In each cell, four to five regions of interest in the photobleached area were selected for analysis.

zebrafish embryos = test: Zebrafish embryo phenotype analysis (insulin:GFP beta cells, Flk:GFP intersegmental vessels, somites); format: in vivo; conditions: for off-target toxicity: whole zebrafish embryo assays
Protocol: If SANT74 and SANT75 are specific inhibitors of Hh treating, zebrafish embryos should only produce these well-characterized phenotypes. […] Using these criteria, the specificity of SANT74 and 75 in zebrafish was evaluated.
As a utility of this new inhibitor, timing requirement of Hh for normal somite formation and sprouting of ISV was tested by adding and washing away SANT74 at various developmental stages followed by phenotypic analysis.

[2] = tested on: Hh signal pathway target genes Ptch1 and Gli1 mRNA; test: Quantitative real-time PCR of Hh target genes in zebrafish embryos; format: in vivo; conditions: dose dependent; for Ptch1 mRNA level: FIG. 1A; for Gli1 mRNA level: FIG. 1B
Protocol: Quantitative Real-time PCR. The larvae were exposed to different concentrations of small molecules from 2 hpf. Total RNA was extracted from the embryos at 36 hpf using the Trizol kit (Ambion, Austin, Tex.) according to the manufacturer's instructions. Three groups per treatment, each composed of 20 embryos, were assayed using SYBRGreen qPCR kit by real-time PCR (ABI Prism 7700 Sequence Detector System).

Stability remarks = format: physicochemical; conditions: in our studies
mouse Smoothened = molecular target: T1, mouse Smoothened (Mus musculus, UniProt P56726); test: Smo-binding assay (BODIPY-cyclopamine competition, HEK 293T cells); conditions: 5 nM BODIPY-cyclopamine, Smo-overexpressing HEK 293T cells
T1 construct: expressed in transfected cells; host or cells: HEK 293T
T1 sequence (P56726 33-793): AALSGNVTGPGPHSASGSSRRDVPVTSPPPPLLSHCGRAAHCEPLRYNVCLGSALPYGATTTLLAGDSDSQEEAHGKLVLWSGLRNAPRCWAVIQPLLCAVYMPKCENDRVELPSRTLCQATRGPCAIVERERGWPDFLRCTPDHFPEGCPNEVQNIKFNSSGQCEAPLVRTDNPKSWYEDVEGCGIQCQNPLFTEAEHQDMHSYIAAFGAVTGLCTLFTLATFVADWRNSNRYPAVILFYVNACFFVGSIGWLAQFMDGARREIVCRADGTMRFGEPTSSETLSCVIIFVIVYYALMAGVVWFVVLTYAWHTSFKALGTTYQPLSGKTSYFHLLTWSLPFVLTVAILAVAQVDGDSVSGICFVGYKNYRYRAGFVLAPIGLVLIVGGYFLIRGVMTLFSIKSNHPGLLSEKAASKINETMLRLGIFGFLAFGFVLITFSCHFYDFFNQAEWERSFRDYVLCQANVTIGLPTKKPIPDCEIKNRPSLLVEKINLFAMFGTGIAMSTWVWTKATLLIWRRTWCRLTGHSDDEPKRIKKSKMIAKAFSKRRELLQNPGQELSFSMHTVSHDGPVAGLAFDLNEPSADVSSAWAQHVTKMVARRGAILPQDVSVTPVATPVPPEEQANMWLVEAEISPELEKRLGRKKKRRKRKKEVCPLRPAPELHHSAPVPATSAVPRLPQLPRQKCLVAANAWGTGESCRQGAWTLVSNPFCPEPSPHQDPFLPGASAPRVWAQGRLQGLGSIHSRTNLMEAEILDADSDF
Protocol: Smo-binding assay. HEK 293T cells were cultured in DMEM containing 10% fetal bovine serum, 100 U/mL penicillin, and 100 μg/mL streptomycin to 50% confluency in 96-well plates and then transfected with a CMV promoter-driven mouse Smoothened-Myc3 expression construct (100 ng cDNA/well) with Fugene 6 (Roche) according to the manufacturer's protocols. After 12 h the cells were incubated with DMEM containing 0.5% fetal bovine serum, 10 μM Hoechst 33342, 5 nM BODIPY-labeled cyclopamine (Chen J. K., Taipale J, Cooper M. K., Beachy P. A., “Inhibition of Hedgehog signaling by direct binding of cyclopamine to Smoothened” Genes Dev., 2002; 16:2743-8; incorporated herein by reference), and various concentrations of compound 75 for 1 h. The cells were washed two times with PBS buffer and then imaged in DMEM containing 0.5% fetal bovine serum using an ImageXpress 5000A microscopy system (Molecular Devices).

Shh-LIGHT2 cells = test: Compound activities in Shh-LIGHT2 cells (Gli-dependent luciferase reporter); format: cell-based; conditions: Shh Light2, Shh-N-conditioned medium, luciferase reporter activity
Protocol: Shh-LIGHT2 cells (ATCC CRL-2795), a NIH-3T3 cell line stably incorporating Gli-dependent firefly luciferase and thyrmidine kinase promoter-driven Renilla luciferase reporters (Taipale J, Chen J K, Cooper M K, Wang B. Mann R K, Milenkovic L. et al. “Effects of oncogenic mutations in Smoothened and Patched can be reversed by cyclopamine” Nature 2000; 406:1005-9; incorporated herein by reference), were cultured to confluency in 96-well plates using DMEM medium containing 10% calf serum, 100 U/mL penicillin, and 100 μg/mL streptomycin. The cells were then treated with various concentrations of the compounds in DMEM containing 0.5% calf serum and a 1:20 dilution of Shh-N-conditioned medium (Chen J. K., Taipale J. Young K. E., Maiti T Beachy P. A., “Small molecule modulation of Smoothened activity” Proc. Natl. Acad. Sci. U.S.A., 2002; 99:14071-6; incorporated herein by reference). The cells were cultured for an additional 30 h under standard conditions. Firefly and Renilla luciferase activities were measured on a Veritas luminometer (Turner Biosystems) using a dual luciferase kit (Promega) according to the manufacturers' protocols.

Row | Compound | basal FRET of mSmo-CFPN/mSmoYFPN (N-termini) (mouse Smo) | off-target toxicity (zebrafish embryos) | concentration at which inhibition of Hh signaling starts to show [1] | concentration that blocks/abolishes Gli:GFP expression [1] | Ptch1 mRNA level [2] | Gli1 mRNA level [2] | stability (Stability remarks) | Shh-induced decrease in FRET from mSmo-CFPL2YFPC (FRETL2C) (mouse Smo) | Shh-induced increase in FRET between mSmo-CFPC and mSmo-YFPC (FRETC) (mouse Smo) | other results
1 | CNC1CCC(N(Cc2cccc(-c3ccncc3)c2)C(=O)c2sc3ccccc3c2Cl)CC1 (stereo not drawn) [SAG, reference compound] | not affected |  |  |  |  |  |  |  |  | effect on Gli:GFP expression ([1]; same condition as SANT19, approximately 80 μM): no effect; FRETC (mouse Smo; 100 nM, independent of Shh): increase; FRETL2C (mouse Smo; 100 nM, independent of Shh): decrease
2 | C=CCN[C@H]1CC[C@H](N(Cc2cccc(-c3ccncc3)c2)C(=O)c2sc3ccccc3c2Cl)CC1 [SANT74, N-(trans-4-(allylamino)cyclohexyl)-3-chloro-N-(3-(pyridin-4-yl)benzyl)benzo[b]thiophene-2-carboxamide] | not affected | no obvious off-target toxicity | 5 µM | 20 µM | reduced | reduced | relatively stable | blocked | blocked | intersegmental blood vessels (ISV) (zebrafish embryos; 20 μM, Flk:GFP transgenic zebrafish): significantly reduced; insulin:GFP cells (zebrafish embryos; 20 μM, insulin:GFP transgenic zebrafish): significantly reduced; effect on sprouting of ISV (zebrafish embryos; added after 24 hpf): no longer had any effect; somite phenotype (zebrafish embryos; added for 4 hours before 21 hpf): induce U shape somite formation; sprouting of ISV (zebrafish embryos; added upon fertilization, washed away before 17 hpf): could occur normally; concentration at which embryos no longer developed any extended ISVs (zebrafish embryos; dose dependent inhibition of angiogenesis): ≥ 20 µM; circulation by microangiographic analysis (zebrafish embryos; embryos with defective ISVs): lacked circulation
3 | CCCN[C@H]1CC[C@H](N(Cc2cccc(-c3ccncc3)c2)C(=O)c2sc3ccccc3c2Cl)CC1 [SANT75, 3-chloro-N-(trans-4-(propylamino)cyclohexyl)-N-(3-(pyridin-4-yl)benzyl)benzo[b]thiophene-2-carboxamide] | not affected | no obvious off-target toxicity | 5 µM | 20 µM | reduced | reduced | relatively stable | blocked | blocked | BODIPY-cyclopamine/Smo binding (mouse Smoothened): effectively abrogate; IC50 (Shh-LIGHT2 cells; read-out: IC50): 20 nM
4 | CC1=C2C[C@H]3[C@@H](CC=C4C[C@@H](O)CC[C@@]43C)[C@@H]2CC[C@]12O[C@@H]1C[C@H](C)CN[C@H]1[C@H]2C [cyclopamine, reference compound] |  |  |  |  |  |  |  |  |  | Gli:GFP expression upon treatment ([1]; transgenic embryos, concentration not given): abolished; IC50 (Shh-LIGHT2 cells): 300 nM
